US20030125363A1, “Riluzole and alpha-tocopherol combination” (priority 1998, published 2003)

Tested on: patients suffering from ALS
[1] = after 12 months of treatment, Munsat functional states

Description: The study was carried out in 289 patients in total aged over 18 years, who have been suffering from ALS for less than 5 years and in whom the vital capacity/theoretical normal vital capacity ratio is greater than or equal to 60% (the vital capacity is a routine conventional measurement of the respiratory function also called lung function test).
The patients are divided into 2 groups:
group 1: 145 patients treated with 100 mg/day of riluzole by the oral route and 1000 mg/day of α-tocopherol by the oral route,
group 2: 144 patients treated with 100 mg/day of riluzole by the oral route and placebo.
The patients are monitored for a year. The results are measured on functional scales (Munsat's functional states (RIVIERE et al., Arch. Neurol., 55, 526 (1998)), a visual analog scale (VAS) for fatigability (LACOBLEZ et al., The Lancet, 347, 1425 (1996); BENSIMON et al., New England Journal of Medicine, 330, 585 (1994)) and plasma concentration of malondialdehyde, a biochemical marker for oxidative stress (FAVIER, Analysis of free radicals in biological systems, Birk Hauser, Basel/Switzerland, 1995 p. 100-117).
The Munsat functional state A relates to patients in an average or mild state:
average state: average deficiency in 3 regions (speech, arm and leg), functionally independent in speech, activities of the upper extremities in daily and ambulatory life,
mild state: average deficiency in 3 regions or mild to severe deficiency in one region while the other two regions are normal or slightly affected.
The Munsat functional state B relates to patients in the severe or final state:
severe state: need for assistance in 2 or 3 regions, dysarthric speech and/or patients requiring assistance to walk and/or requiring assistance for the activities of the upper extremities in daily life,
final state: nonfunctional use of at least 2 regions and mild or nonfunctional use of the third region.
The progression of the functional states A and B is determined at the time of inclusion (M0) and after 12 months of treatment (M12).

Nc1nc2ccc(OC(F)(F)F)cc2s1 [RILUZOLE AND PLACEBO, 2-amino-6-trifluoromethoxybenzothiazole]
Condition after treatment (M12): state A (Munsat functional state A (average or mild), after 12 months of treatment, riluzole 100 mg/day oral, α-tocopherol 1000 mg/day oral or placebo): 56 number of patients
Condition on inclusion (M0): state A (Munsat functional state A (average or mild), baseline at inclusion M0, oral treatment): 109 number of patients
Condition after treatment (M12): state B (Munsat functional state B (severe or final), after 12 months of treatment, riluzole 100 mg/day oral, α-tocopherol 1000 mg/day oral or placebo): 63 number of patients
Condition on inclusion (M0): state B (Munsat functional state B (severe or final), baseline at inclusion M0, oral treatment): 10 number of patients
patients who did not exhibit any change [1]: 66 patients
patients who did not exhibit any change (percent) [1]: 55.3%
patients who exhibited a worsening of the disease [1]: 53 patients
patients who exhibited a worsening of the disease (percent) [1]: 44.5%
